Data from Sander's compilation of Henry's law constants (doi:10.1080/00039896.1979.10667371).

Assay: Henry solubility constant Hcp at 310 K (mol/(m3 Pa))
Conditions: reference: Sato and Nakajima (1979b)

Structure (SMILES)	Henry solubility constant Hcp at 310 K
ClC(Cl)C(Cl)Cl [1,1,2,2-tetrachloroethane]	0.014
ClC(Cl)(Cl)Cl [tetrachloromethane]	9.7e-05
CCCCCl [1-chlorobutane]	0.00033
ClC=C(Cl)Cl [trichloroethene]	0.0005
Clc1cccc(Cl)c1 [1,3-dichlorobenzene]	0.0021
ClCCl [dichloromethane]	0.0028
ClCC(Cl)(Cl)Cl [1,1,1,2-tetrachloroethane]	0.0021
CC(Cl)(Cl)Cl [1,1,1-trichloroethane]	0.00036
ClC(Cl)=C(Cl)Cl [tetrachloroethene]	0.00017
Clc1ccccc1 [chlorobenzene]	0.0016
ClCC(Cl)Cl [1,1,2-trichloroethane]	0.0066
CC(Cl)CCl (stereo not drawn) [1,2-dichloropropane]	0.0021
CCCCCCl [1-chloropentane]	0.00027
